Laboratory results taken from ChEMBL document CHEMBL1123047, “Quantitative evaluation of the beta 2-adrenoceptor affinity of phenoxypropanolamines and phenylethanolamines” (J Med Chem, 1985).

Columns and labels:
[1] = biological target: Beta-2 adrenergic receptor (Bos taurus, UniProt Q28044); conditions: read-out: Kd app
Description: (§2) Affinity for cow beta-2 adrenergic receptor by measuring displacement (-)-[3H]dihydroalprenolol (DHA)

[2] = biological target: Beta-2 adrenergic receptor (Bos taurus) (UniProt Q28044)
Description: as §2

[3] = (§1) Partition coefficient (logP); conditions: octanol/water
[4] = as §1; type: physicochemical; conditions: octanol/water

Chain of Beta-2 adrenergic receptor (Bos taurus) (Q28044 whole entry, looked up): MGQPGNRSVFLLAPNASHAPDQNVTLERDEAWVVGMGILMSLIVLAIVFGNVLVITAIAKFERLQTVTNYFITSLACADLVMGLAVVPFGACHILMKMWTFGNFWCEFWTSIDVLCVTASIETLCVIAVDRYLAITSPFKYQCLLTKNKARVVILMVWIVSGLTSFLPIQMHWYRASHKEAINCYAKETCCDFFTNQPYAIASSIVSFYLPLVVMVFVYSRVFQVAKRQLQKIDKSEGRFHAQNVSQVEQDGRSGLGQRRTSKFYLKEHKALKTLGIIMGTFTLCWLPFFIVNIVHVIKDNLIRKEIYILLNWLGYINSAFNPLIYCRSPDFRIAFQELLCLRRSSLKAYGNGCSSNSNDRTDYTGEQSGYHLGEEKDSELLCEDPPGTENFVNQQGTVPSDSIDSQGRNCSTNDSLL
Chain of Beta-2 adrenergic receptor (Q28044 whole entry): as the sequence (Q28044 whole entry, looked up) above

Row | SMILES | Kd [1] [nM] | -Log KD [2] | logP [3] | logP [4]
1 | CC(C)(C)NCC(O)c1ccc(O)cc1 (centres undefined) | 1260 | 6.2 |  | 
2 | CC(C)NCC(O)c1cc(Cl)c(N)c(Cl)c1 (centres undefined) | 58 | 7.54 |  | 
3 | CC(C)(C)NCC(O)c1ccc(O)c(O)c1 (centres undefined) [COLTEROL] | 600 | 6.55 |  | 
4 | Cc1ccccc1OCC(O)CNC(C)C (centres undefined) | 10.2 | 8.29 |  | 
5 | CC(C)NCC(O)c1ccc(O)c(CO)c1 (centres undefined) | 3160 | 5.8 |  | 
6 | CC(C)NCC(O)c1ccc(O)cc1 (centres undefined) [DETERENOL] | 4270 |  |  | 
7 | Cc1cc(C)cc(OCC(O)CNC(C)C)c1 (centres undefined) | 10.2 | 8.29 |  | 
8 | OCc1ccccc1O [SALICYL ALCOHOL] |  |  | 0.73 | 
9 | CNc1cc(C(O)CNC(C)(C)C)ccc1O (centres undefined) | 520 |  |  | 
10 | CC(C)NCC(O)c1cccc(O)c1 (centres undefined) [METATEROL] | 910 | 6.34 |  | 
11 | CC(C)NCC(O)c1cc(O)cc(O)c1 (centres undefined) [METAPROTERENOL] | 9120 |  |  | 
12 | CC(C)NCC(O)c1ccc(NS(C)(=O)=O)cc1 (centres undefined) |  | 6.57 |  | 
13 | CC(C)(C)NCC(O)c1ccccc1Cl (centres undefined) [TULOBUTEROL] | 130 |  |  | 
14 | CC(C)(C)NCC(O)c1cc(Cl)c(O)c(Cl)c1 (centres undefined) | 1950 | 7.41 |  | 
15 | CC(C)(C)NCC(O)c1cc(O)cc(O)c1 (centres undefined) |  | 5.73 |  | 
16 | CC(C)NCC(O)COc1ccccc1C1CC1 (centres undefined) [PROCINOLOL] | 0.39 | 9.41 |  | 
17 | CC(C)(C)NCC(O)c1ccc(O)c(C(N)=O)c1 (centres undefined) | 470 |  |  | 

Row | SMILES | Kd [1] [nM] | -Log KD [2] | logP [3] | logP [4]
18 | CC(C)NCC(O)COc1ccccc1CO (centres undefined) | 50.1 | 7.6 |  | 
19 | CC(C)NCC(O)COc1ccccc1C#N (centres undefined) | 21.9 | 7.96 |  | 
20 | CC(C)NCC(O)c1ccc2ccccc2c1 (centres undefined) [PRONETALOL] | 160 | 7.1 |  | 
21 | CCCc1ccccc1OCC(O)CNC(C)C (centres undefined) | 0.63 | 9.2 |  | 
22 | CC(C)NCC(O)c1ccc(O)c(N)c1 (centres undefined) | 5130 | 5.59 |  | 
23 | CCC(C)c1cccc(OCC(O)CNC(C)C)c1 (centres undefined) | 17.8 | 8.05 |  | 
24 | CC(C)NCC(O)c1ccc([N+](=O)[O-])cc1 (centres undefined) [NIFENALOL] | 1320 |  |  | 
25 | Cc1cccc(OCC(O)CNC(C)C)c1 (centres undefined) [TOLIPROLOL] | 43.6 | 7.66 |  | 
26 | CC(C)NC[C@H](O)COc1ccc(O)cc1 [PRENALTEROL] | 1070 | 6.27 |  | 
27 | CC(C)NCC(O)COc1ccccc1 (centres undefined) | 53.7 | 7.57 |  | 
28 | Oc1cccc(O)c1 [RESORCINOL] |  |  | 0.8 | 
29 | NC(=O)c1ccccc1O [SALICYLAMIDE] |  |  |  | 1.28
30 | CCCc1ccccc1 |  |  | 3.57 | 
31 | C#CCOc1ccccc1OCC(O)CNC(C)C (centres undefined) | 2.14 | 8.97 |  | 
32 | CC(C)(C)NCC(O)c1ccc(O)c(N)c1 (centres undefined) | 2040 | 5.99 |  | 
33 | CC(C)(C)NCC(O)c1ccc(O)c(CO)c1 (centres undefined) |  | 6.58 |  | 
34 | Nc1ccccc1O [QUESTIOMYCIN B] |  |  | 0.52 | 
